Source: publication PMC11467779, “New anti-ovarian cancer quinolone derivatives acting by modulating microRNA processing machinery” (RSC Medicinal Chemistry, 2024)

Test system: KO TRBP SK-Hep-1 cells
Assay: Antiproliferative effect on KO TRBP SK-Hep-1 cells (CCK-8)
Assay type: cell-based, human
Conditions: 48 hours
Protocol: HCCLM3 and SK-Hep-1 cells were seeded into 96-well plates at a density of 10 000 cells per well and allowed to adhere overnight. Subsequently, the cells were treated with the following substances: 0.1% DMSO as the negative control, various concentrations of the test compounds, and 125 μM enoxacin as the positive control. After 48 h of incubation, the original culture medium was removed, and the cells were washed twice with PBS. Then, 100 μL of DMEM culture medium containing 10% CCK-8 (Bimake, USA) was added to each well. The plates were incubated for 30 minutes at 37 °C. To determine the […], measurements were taken at a wavelength of 450 nm using a Varioskan from Thermo Fisher Scientific.

O=C(O)c1cn(C2CC2)c2cc(N3CCc4ccccc4C3)c(F)cc2c1=O [Compound 33, 1-Cyclopropyl-7-(3,4-dihydroisoquinolin-2(1H)-yl)-6-fluoro-4-oxo-1,4-dihydroquinoline-3-carboxylic acid]
antiproliferative effect on KO TRBP SK-Hep-1 cells (30 μM): no antiproliferative effect | viability of KO TRBP SK-Hep-1 cells (50 μM): not affecting
